Measurements published in article PMC4827351 (Chemical Science, 2015).

How the values were obtained:
[1] = test system: L. monocytogenes ATCC 19115; assay: Cuvette-based bacterial agglutination assay; format: cell-based, Listeria monocytogenes; conditions: n = 3
Source text: We previously reported a simple cuvette-based in vitro agglutination assay that enables time-dependent monitoring of agglutination of viable bacteria by HD6.[15] We employed this assay to further characterize the trypsin-dependent activity of proHD6 on cultured bacterial cells (Fig. 4a and b). […] In these assays, we defined the “supernatant” as the culture solution in the top portion of the cuvette and the “re-suspension” as the mixture that results from agitating the entire culture after the 6 h incubation period.[15] We observed an ≈1.5-fold log reduction in CFU mL^–1 for the “supernatant” from cultures treated with combination of trypsin and proHD6 relative to the no-peptide control (Fig. 4c). Following “re-suspension”, the total CFU mL^–1 in the cuvette was indistinguishable from that of either the untreated control culture or the bacterial culture treated with proHD6.
Fig. 4 Bacterial agglutination assays for native and cleaved proHD6. (a) Agglutination of E. coli ATCC 25922 and L. monocytogenes ATCC 19115 in 50% MHB treated with proHD6 in the absence and presence of 0.4 μM trypsin or HD6 (control). (b) Representative images of cuvettes containing E. coli ATCC 25922 or L. monocytogenes ATCC 19115 after incubation with 20 μM peptides for 2 h at room temperature. (c) Plots of colony forming units (CFU mL^–1) of E. coli ATCC 25922 and L. monocytogenes ATCC 19115 after treatment with 20 μM peptides for 6 h (mean ± SDM, n = 3). Supernatant is defined as the clarified medium solution in the top portion of the culture and resuspension is defined as the mixture after thoroughly agitating the heterogeneous solution.
Stock solutions (50 μL) of HD6 and proHD6 (0, 50, 100, and 200 μM; 10× concentrations) were prepared in sterile Milli-Q water. If trypsin was required, aliquots of a 1 mg mL^–1 stock solution of TPCK-treated trypsin (Worthington) prepared in sterile Milli-Q water were added to solutions of proHD6 to afford a final trypsin concentration of 0.01 mg mL^–1. The assays were then conducted following the reported procedure.[15] […]

[2] = Sedimentation velocity analytical ultracentrifugation; format: physicochemical; conditions: SV-AUC; for s20,w: 42 000 rpm, 20 °C, A280, DCDT+; for MW (best-fit molecular mass) / D: DCDT+
Description: The experiments were set up as previously reported.[15] In one set of experiments, 10× concentrated proHD6 solutions in Milli-Q water (≈40 μL) were transferred to microcentrifuge tubes and lyophilized to dryness. […] The pH of each solution was measured to confirm that it remained unchanged. The samples were centrifuged at 42 000 rpm and 20 °C until sedimentation was complete. The absorption wavelength for optical detection was 280 nm. All SV experiments were conducted with at least two independently prepared and purified samples of each peptide and in at least two independent trials.
Additional SV experiments were conducted to evaluate the effect of buffer components on the sedimentation of proHD6. In all cases, the proHD6 samples (400 μL) were prepared as described above except that proHD6 was dissolved in 10 mM Tris–HCl or HEPES pH 7.4 to obtain a final peptide concentration of 50 μM.
The experimental sedimentation coefficients were calculated by fitting the time derivative of the sedimentation velocity (–dc/dt) data using DCDT+.[29],[54] The –dc/dt distribution was generated from 22 to 28 scans with a peak broadening limit of 40 kDa by using DCDT+.
Table S4. Calculated sedimentation coefficients of proHD6.a
Concentration Buffer pH s20,w (S) D (F) MW (kDa) Partial Specific
(µM) (10 mM) Volume (mL/g) […]
a All samples were prepared in the indicated buffer; NaP is sodium phosphate. The temperature was 20 °C. Data were obtained by analysis with the dc/dt method implemented in DCDT+ using 22- 28 scans with 40 kDa diffusion broadening maximum. Sedimentation coefficients are s20,w values, adjusted with a solvent density (ρ) of 0.99967 g/mL and a solvent viscosity (η) of 1.0061 cP. Viscosity units are in centipoise (cP) (1 poise = 1 gŸ[…]cm-1Ÿ[…]s-1). Sedimentation coefficients are in svedbergs (1 svedberg = 100 fs = 1 x 10-13 s). Diffusion coefficients correspond to the best-fit molecular mass in Fick units (1 Fick = 1 x 10-7 cm2/s). HEPES has a solvent density (ρ) of 0.99901 g/mL and a solvent viscosity (η) of 1.0104 cP at 20 °C. Tris-HCl has a solvent density (ρ) of 0.99851 g/mL and a solvent viscosity (η) of 1.0037 cP at 20 °C. The solvent densities, viscosities, and the partial specific volume values of proHD6 monomer and dimer were […]

[3] = proHD6 30 µM, 10 mM NaP pH 7.4, first 30 µM line
[4] = proHD6 30 µM, 10 mM NaP pH 7.4, second 30 µM line
[5] = proHD6 30 µM, 10 mM NaP pH 7.4, third 30 µM line
[6] = proHD6 50 µM, 10 mM HEPES pH 7.4
[7] = proHD6 50 µM, 10 mM NaP pH 7.4, first 50 µM line
[8] = proHD6 50 µM, 10 mM NaP pH 7.4, second 50 µM line
[9] = proHD6 50 µM, 10 mM Tris-HCl pH 7.4
[10] = proHD6 100 µM, 10 mM NaP pH 7.4
[11] = proHD6 120 µM, 10 mM NaP pH 7.4
[12] = proHD6 140 µM, 10 mM NaP pH 7.4

EPLQAEDDPLQAKAYEADAQEQRGANDQDFAVSFAEDASSSLRALGSTRAFTCHCRRSCYSTEYSYGTCTVMGINHRFCCL (disulfide (positions not given here)) [proHD6, 81-residue propeptide of human α-defensin 6, recombinant, from His6-SUMO-proHD6]
total CFU mL^-1 after re-suspension versus untreated control culture or culture treated with proHD6 ([1]; 20 µM proHD6 + trypsin, 6 h, entire culture agitated): indistinguishable
agglutination of bacterial culture in cuvette, with trypsin ([1]; proHD6 + 0.4 µM (0.01 mg/mL) trypsin, 10^8 CFU mL^-1, 50% MHB, room temperature): bacterial agglutination and sedimentation occurred
agglutination of bacterial culture in cuvette ([1]; proHD6 up to 20 µM, no trypsin, 10^8 CFU mL^-1, 50% MHB, 6 h, room temperature): remained homogeneous
s20,w [2, 3]: 1.727 S
s20,w [2, 4]: 1.798 S
s20,w [2, 5]: 1.733 S
s20,w [2, 6]: 1.763 S
s20,w [2, 7]: 1.844 S
s20,w [2, 8]: 1.865 S
s20,w [2, 9]: 1.783 S
s20,w [2, 10]: 1.843 S
s20,w [2, 11]: 1.769 S
s20,w [2, 12]: 1.751 S
MW (best-fit molecular mass) [2, 3]: 14.3 kDa
D ([2]; proHD6 30 µM, 10 mM NaP pH 7.4, first 30 µM line, 1 Fick = 1 x 10-7 cm2/s): 9.83 F
D [2, 4]: 11.5 F
MW (best-fit molecular mass) [2, 4]: 12.8 kDa
D [2, 5]: 9.73 F
MW (best-fit molecular mass) [2, 5]: 14.5 kDa
D [2, 6]: 9.94 F
MW (best-fit molecular mass) [2, 6]: 14.4 kDa
D [2, 7]: 10.4 F
MW (best-fit molecular mass) [2, 7]: 14.4 kDa
D [2, 8]: 10.3 F
MW (best-fit molecular mass) [2, 8]: 14.8 kDa
D [2, 9]: 8.97 F
MW (best-fit molecular mass) [2, 9]: 16.1 kDa
D [2, 10]: 13.8 F
MW (best-fit molecular mass) [2, 10]: 10.9 kDa
D [2, 11]: 9.16 F
MW (best-fit molecular mass) [2, 11]: 15.7 kDa
D [2, 12]: 9.47 F
MW (best-fit molecular mass) [2, 12]: 15.0 kDa
